Patent publication US20100323990A1, “SHIP 1 MODULATOR PRODRUGS” (THE UNIVERSITY OF BRITISH COLUMBIA, priority 2006, published 2010)

Columns and labels:
J774.1a macrophage cells [1] = assay: Macrophage TNF-α production (Assay 2); format: cell-based; conditions: 10 μg/mL test compound, 100 ng/mL LPS, supernatants after 2 hr and 5 hr; note: key: a ‘+’ indicates a positive result for desired activity; a ‘−’ indicates a negative result for desired activity
Protocol: (§1) Assay 1) In vitro testing in a SHIP enzyme assay. Test compounds were dissolved in a suitable solvent (e.g. EtOH, DMSO and others) and diluted into aqueous buffer (20 mM Tris HCl, pH 7.5 and 10 mM MgCl2). SHIP enzyme assays were performed in 96-well microtitre plates with 10 ng of enzyme/well in a total volume of 25 μL of 20 mM Tris HCl, pH 7.5 and 10 mM MgCl2. SHIP enzyme was incubated with test extracts (provided in solvent) or vehicle for 15 min at 23° C. before the addition of 100 μM inositol-1,3,4,5-tetrakisphosphate (Echelon Biosciences Inc, Salt Lake City, Utah). After 20 min at 37° C. and the amount of inorganic phosphate released assessed by the addition of Malachite Green reagent and absorbance measurement at 650 nm. Assay 2) Macrophage TNF-α production. J774.1a macrophage cells were treated with 10 μg/mL of test compound dissolved in solvent (e.g. cyclodextran) for 40 minutes prior to the addition of 100 ng/mL LPS. Culture supernatants were collected after 2 hr and 5 hr for TNF-α determination by ELISA. Assay 3) Macrophage TNF-α NO assay. J774.1a macrophage cells were treated with 10 μg/ml of test compound dissolved in solvent for 40 minutes prior to the addition of LPS. Culture supernatants were collected after 24 hr. for determination of NO concentration using the Griess reagent. Assay 4) Stimulation of mast cells by FcεRI crosslinking. Mast cells were pre-loaded overnight in BMMC medium lacking IL-3 with 0.1 μg/ml anti-DNP IgE (SPE-7, Sigma, Oakville, Ont). For calcium flux measurements, cells were incubated with 2 μM fura 2-acetoxymethyl ester (Molecular Probes, Eugene, Oreg.) in Tyrode's buffer at 23° C. for 45 min. Cells were then washed and incubated in the presence of the test compound 30 min prior to stimulation with the indicated concentration of DNP-human serum albumin (DNP-HSA). Calcium influx was monitored by spectrofluorometry as described previously. For analysis of intracellular signaling, cells were pre-loaded with anti-DNP IgE as above, pre-treated with the test compound for 30 min at 37° C. and stimulated with 20 ng/ml DNP-HSA for 5 min. Total cell lysates were then prepared and analyzed for phospho-PKB, phospho-p38^MAPK, phospho-MAPK, Grb-2 (Cell Signalling, Mississauga, Ont) and SHIP^6 by immunoblot analysis. Assay 5) Mouse acute cutaneous anaphylaxis model. 6-8 week old CD1 mice (University of British Columbia Animal Facility, Vancouver, BC) were sensitized to the hapten DNP by cutaneous application of 25 μL of 0.5% dinitrofluorobenzene (DNFB) (Sigma, Oakville, Ont) in acetone to the shaved abdomen of mice for two consecutive days. 24 hrs later, test substances (dissolved in 10 μL of 1:2 DMSO:MeOH) were painted on the right ear while the left ear received vehicle control. 30 min after drug application, DNFB was applied to both ears to induce mast cell degranulation. A 6 mm punch was taken from the ear and immediately frozen on dry ice for subsequent determination of neutrophil myeloperoxidase (MPO) activity. Assay 6) Mouse endotoxemia model. 6-8 week old C57B16 mice (VCHRI Mammalian Model of Human Disease Core Facility, Vancouver, BC) were orally administered the test compound 30 min prior to an IP injection of 2 mg/kg of LPS (E. Coli serotype 0111:B4, Sigma, Oakville, Ont). Blood was drawn 2 hrs later for determination of plasma TNFα by ELISA. Assay 7) In vitro Mulitple Myeloma (MM) assay. The ability of SHIP activators to reduce tumor cell survival was assessed in MM cell lines treated with the test compound. The lines OPM1, OPM2, MM.1S and RPMI 8226 were plated at a density of 1×10^5 cells/mL in 200 μL of medium with various concentrations of the test compound, and viable cell numbers were determined on day 3 and day 5 by trypan blue exclusion. The lines RPMI 8226 and U266 were plated at a density of 1×10^6 cells/mL in 250 μL of medium with various concentrations of the test compound. At day 4, the medium of each culture was replaced by fresh medium containing the same concentration of test compound. […]

J774.1a macrophage cells [2] = assay: Macrophage TNF-α NO assay (Assay 3), Griess reagent; format: cell-based; conditions: 10 μg/ml test compound, LPS, supernatants after 24 hr; note: key: a ‘+’ indicates a positive result for desired activity; a ‘−’ indicates a negative result for desired activity
Protocol: as §1

Mast cells = assay: Stimulation of mast cells by FcεRI crosslinking (Assay 4); format: cell-based; conditions: test compound 30 min prior to DNP-HSA
Protocol: as §1, with “6-8 week old CD1 mice (University of British Columbia Animal Facility, Vancouver, BC) were sensitized to the hapten DNP by cutaneous application of 25 μL of 0.5% dinitrofluorobenzene (DNFB) (Sigma, Oakville, Ont) in acetone to the shaved abdomen of mice for two consecutive days. 24 hrs later, test substances (dissolved in 10 μL of 1:2 DMSO:MeOH) were painted on the right ear while the left ear received vehicle control. 30 min after drug application, DNFB was applied to both ears to induce mast cell degranulation. A 6 mm punch was taken from the ear and immediately frozen on dry ice for subsequent determination of neutrophil myeloperoxidase (MPO) activity. Assay 6) Mouse endotoxemia model. 6-8 week old C57B16 mice (VCHRI Mammalian Model of Human Disease Core Facility, Vancouver, BC) were orally administered the test compound 30 min prior to an IP injection of 2 mg/kg of LPS (E. Coli serotype 0111:B4, Sigma, Oakville, Ont). Blood was drawn 2 hrs later for determination of plasma TNFα by ELISA. Assay 7) In vitro Mulitple Myeloma (MM) assay.” left out, “exclusion.” for “exclusion. The lines RPMI 8226 and U266 were plated at a density of 1×10^6 cells/mL in 250 μL of medium with various concentrations of the test compound. At day 4, the medium of each culture was replaced by fresh medium containing the same concentration of test compound.”

plasma TNFα = assay: Mouse endotoxemia model (Assay 6), plasma TNFα by ELISA; format: in vivo, mice; conditions: oral, 30 min prior to IP 2 mg/kg LPS, plasma TNFα 2 hrs later
Protocol: as §1, with “6-8 week old C57B16 mice (VCHRI Mammalian Model of Human Disease Core Facility, Vancouver, BC) were orally administered the test compound 30 min prior to an IP injection of 2 mg/kg of LPS (E. Coli serotype 0111:B4, Sigma, Oakville, Ont). Blood was drawn 2 hrs later for determination of plasma TNFα by ELISA. Assay 7) In vitro Mulitple Myeloma (MM) assay.” left out, “exclusion.” for “exclusion. The lines RPMI 8226 and U266 were plated at a density of 1×10^6 cells/mL in 250 μL of medium with various concentrations of the test compound. At day 4, the medium of each culture was replaced by fresh medium containing the same concentration of test compound.”

J2M macrophage cells = assay: TNFα production in LPS-stimulated J2M macrophages (Example 10); format: cell-based; conditions: 2 ng/mL LPS
Protocol: An assay to determine the inhibition of macrophage TNFα by varying concentrations of Compound 106 was carried out as follows.
J2M macrophage cells were plated at 2×10^5 cells/well in 24 well plates. The next day the media was changed and Compound 106 or PBS carrier were added to the wells at the indicated concentrations for 30 min prior to stimulation of the cells with 2 ng/mL lipopolysaccharide (LPS). LPS activation of macrophages leads to production of TNFa which can be detected in the culture supernatant and quantified by ELISA. The results are depicted in a graph in FIG. 2.

[3] = tested on: Bone marrow derived mast cells; assay: Calcium influx in mast cells after IgE receptor crosslinking (Example 11); format: cell-based; conditions: 1 hr treatment, anti IgE antibody
Protocol: An assay to determine the inhibition of calcium influx in mast cells by Compound 106 was carried out as follows.
The activation of mast cells by IgE receptor crosslinking leads to an influx of calcium into the cells, followed by degranulation and secretion of pro-inflammatory mediator. Bone marrow derived mast cells were loaded with the fluorescent calcium indicator dye Fura-2 prior to treatment for 1 hr with Compound 106 or PBS carrier. Cells were then stimulated or not with an anti IgE antibody to cross-link the IgE receptors. Calcium influx was then monitored by fluorimetry. The results are depicted in a graph in FIG. 3.

Cc1cc(OC(=O)C(N)CCCCN)cc2c1[C@]1(C)CCC3C(C)(C)CCC[C@]3(C)[C@H]1C2 (stereo partly drawn) [Compound 106]
Assay 2: Macrophage TNF-α production, desired activity (J774.1a macrophage cells [1]): +
Assay 3: Macrophage NO assay, desired activity (J774.1a macrophage cells [2]): +
Assay 4: Stimulation of mast cells by FcεRI crosslinking, desired activity (Mast cells): +
Assay 6: Mouse endotoxemia model, desired activity (plasma TNFα): +
inhibition of macrophage TNFα production (J2M macrophage cells): Inhibits Macrophage TNFα Production
inhibition of calcium influx in mast cells [3]: Inhibits Calcium Influx in Mast Cells
